Laboratory results as given in patent publication US20100137161A1, “METHOD OF GENERATING A PLATELET […] FOR AN INDIVIDUAL” (ROYAL COLLEGE OF SURGEONS IN IRELAND, priority 2006, published 2010).

Tested on: platelet rich plasma (PRP)
Assay: 96 well plate light transmission platelet aggregation assay, dose response to multiple agonists
Assay type: cell-based
Conditions: for platelet reactivity induced by the agonist (dose response curve): PRP of an inflamed rheumatoid arthritis patient, compared to the normal population (n=50), FIG. 3
Method: Healthy subjects who had not taken any antiplatelet medication in the 14 days prior to the study were recruited. Subjects refrained from intensive exercise and tobacco use for 4 hours prior to early morning phlebotomy. Blood was drawn from the antecubital fossa. The first 5 ml taken was discarded to avoid unwanted platelet activation and the next 27 ml of blood was collected in 3 ml of 3.2% sodium citrate anticoagulant. This blood citrate mixture was then centrifuged at 150 g for 10 min to recover the supernatant platelet rich plasma (PRP). The platelet concentration was measured using a Sysmex KX 21N.
A 96 well black isoplate with clear bottoms was used. Agonists were arranged in rows of Row 1—Arachidonic Acid (AA), Row 2—Collagen, Row 3—ADP, Row 4—Epinephrine, Row 5—Thrombin related activated peptide (TRAP) and Row 6 as a control row containing 4 wells of PRP and 4 wells of Platelet Poor Plasma (PPP). The remaining 6 rows maybe used for additional agonists or specific peptides as required.
Buffer A (6 mM Dextrose, 130 mM NaCl, 9 mM NaHCO3, 10 mM trisodium citrate, 10 mM Tris Base, 3 mM KCl, 0.81 mM KH2PO4, and 0.9 mM MgCl26H2O [pH7.4]) was added to wells 2-8 on each row using a 12 channel pipette. Row 1—10 μl of buffer A was inserted into well 2. Then 20 μl of buffer A was added to each of the wells 3-8 inclusive. Then 50 μl of AA (500 mg/ml stock) was inserted into well 1. 30 μl of AA was removed from well 1 and mixed with buffer A in well 2. 20 μl of the AA/buffer A was removed from well 2 and mixed in well 3. 20 μl is then removed from well 3 and mixed in well 4. This is repeated throughout the row up to and including well 8 with 20 μl left over and discarded. Row 2—Collagen (1.9 mg.ml stock) same process as Row 1. Row 3 & 5 ADP (Row 3) and TRAP (Row 5), wells 2-8 had 20 μl of buffer A placed into each. A quantity of 40 μl of ADP (200 μM stock) was placed into well 1. 20 μl of agonist was removed from well 1 and placed into well 2 where it was then mixed thoroughly with buffer A. This same process was then repeated across the plate with 20 μl left over after well 8. This was then discarded. The same process is repeated for Row 5—TRAP (200 μM stock). […]
The plate is then placed into a Wallac Victor 3 plate reader. The plate is read at time zero (T0) at absorbance 572 nm. […] T3 (3 minutes) read is taken and then shaking recommences until T9 (9 minutes) read. Further reads are taken at T15 (15 minutes) and T18 (18 minutes) with shaking in between each time-point. […]
The data is then normalised from the PPP and PRP absorbance values which represent minimum and maximum aggregation. […]

SMILES	inhibition of the COX pathway, arachidonic acid dose response curve (same male, visit 2, 4 weeks later, aspirin (soluble) 150 mg with clopidogrel 75 mg once daily, FIG. 7)	platelet reactivity induced by the agonist (dose response curve)
CC(=O)Oc1ccccc1C(=O)O [aspirin (soluble), aspirin]	clearly inhibited	–
Nc1ncnc2c1ncn2[C@@H]1O[C@H](COP(=O)(O)OP(=O)(O)O)[C@@H](O)[C@H]1O [ADP]	–	excessive platelet reactivity
CCCCC/C=C\C/C=C\C/C=C\C/C=C\CCCC(=O)O [Arachidonic Acid]	–	excessive platelet reactivity
CNC[C@H](O)c1ccc(O)c(O)c1 [Epinephrine]	–	excessive platelet reactivity
